Data from patent US5093332A, “Substituted thieno(2,3-B)(1,4)thiazine-6-sulfonamides as antiglaucoma agents” (priority 1990, dated 1992).
pIC50, pKi: −log10 of the molar value. Counter-ions that a name gives are not always drawn. Like-named read-outs stand apart in the source and are kept apart here.

Key:
[1] = target: T1, human carbonic anhydrase II (Homo sapiens, UniProt P00918); experiment: Carbonic Anhydrase Inhibition Assay; type: biochemical
[2] = target: T1, human carbonic anhydrase II; experiment: Carbonic Anhydrase Binding Assay
[3] = background statement; cited from earlier work
[4] = background statement; cited from earlier work; remark: listed apart in the source
[5] = in vitro inhibition of human carbonic anhydrase II, read-out: IC50
[6] = in vitro binding for human carbonic anhydrase II, read-out: Ki

Row | SMILES | pIC50 [1, 5] | pKi [2, 6] | further results
1 | COCCOCCN(CCOC)CCC1CNc2cc(S(N)(=O)=O)sc2S1(=O)=O (centres unmarked) [Example 20, 3-[2-(N-Methoxyethoxyethyl-N-methoxyethylamino)ethyl]-2,3-dihydro-4,4-dioxo-6-sulfamoyl-1H-thieno[2,3-b][1,4]thiazine Hydrochloride] | > 5.00 | > 5.00 | –
2 | COCCN(CCOC)CCC1CNc2cc(S(N)(=O)=O)sc2S1(=O)=O (centres unmarked) [Example 19, 3-[2-Bis-(2-methoxyethyl)aminoethyl]-2,3-dihydro-4,4-dioxo-6-sulfamoyl-1H-thieno[2,3-b][1,4]thiazine Hydrochloride] | – | – | pIC50 [1]: > 5.00; pKi [2]: > 5.00
3 | NS(=O)(=O)c1cc2c(s1)S(=O)(=O)C(CCO)CN2 (centres unmarked) [Example 10, 3-(2-Hydroxyethyl)-2,3-dihydro-4,4-dioxo-6-sulfamoyl-1H-thieno[2,3-b][1,4]thiazine] | > 5.00 | > 5.00 | –
4 | CCOC(=O)NCC1C(=O)Nc2cc(S(N)(=O)=O)sc2S1(=O)=O (centres unmarked) [Example 14, 2,3-Dihydro-3-ethoxycarbonylaminomethyl-2,4,4-trioxo-6-sulfamoyl-1H-thieno[2,3-b][1,4]thiazine] | > 5.00 | > 5.00 | –
5 | CC(C)(C)NC[C@H](O)COc1nsnc1N1CCOCC1 [(S)-1-tert-Butylamino-3-[(4-morpholino-1,2-5-thiadiazol-3-yl)ox-yl]-2-propanol] | – | – | reduce intraocular pressure [3]: found to reduce intraocular pressure; duration of activity [4]: long duration of activity; local anesthetic properties [4]: devoid of local anesthetic properties; tolerance [4]: minimal tolerance
6 | NNC(=O)CC1C(=O)Nc2cc(S(N)(=O)=O)sc2S1(=O)=O (centres unmarked) [Example 13, (2,3-Dihydro-6-sulfamoyl-2,4,4-trioxo-1H-thieno[2,3-b][1,4]thiazin-3-yl)acetic Acid Hydrazide] | > 5.00 | > 5.00 | –
7 | CC[C@@H]1C(=O)OC[C@@H]1Cc1cncn1C [pilocarpine] | – | – | reduce intraocular pressure [3]: reduce intraocular pressure
8 | COCCOCCN(CCOC)C(=O)CC1C(=O)Nc2cc(S(N)(=O)=O)sc2S1(=O)=O (centres unmarked) [Example 16, N-Methoxyethoxyethyl-N-methoxyethyl(2,3-dihydro-2,4,4-trioxo-6-sulfamoyl-1H-thieno[2,3-b][1,4]thiazin-3-yl)acetamide] | > 5.00 | > 5.00 | –
9 | NS(=O)(=O)c1cc2c(s1)S(=O)(=O)CC(=O)N2 [Example 4, 2,3-Dihydro-6-sulfamoyl-2,4,4-trioxo-1H-thieno[2,3-b][1,4]thiazine] | – | – | pIC50 [1]: > 5.00; pKi [2]: > 5.00
10 | COCCOCCN(CCOC)CCC1C(=O)Nc2cc(S(N)(=O)=O)sc2S1(=O)=O (centres unmarked) [Example 17, 3-[2-(N-Methoxyethoxyethyl-N-methoxyethylamino)ethyl]-2,3-dihydro-2,4,4-trioxo-6-sulfamoyl-1H-thieno[2,3-b][1,4]thiazine] | > 5.00 | > 5.00 | –
11 | CNC(=O)Oc1ccc2c(c1)[C@]1(C)CCN(C)[C@@H]1N2C [physostigmine] | – | – | reduce intraocular pressure [3]: reduce intraocular pressure
12 | NS(=O)(=O)c1cc2c(s1)SCC(=O)N2 [Example 1, 2,3-Dihydro-2-oxo-6-sulfamoyl-1H-thieno[2,3-b][1,4]thiazine] | > 5.00 | > 5.00 | –
13 | NS(=O)(=O)c1cc2c(s1)SC(CC(=O)O)C(=O)N2 (centres unmarked) [Example 2, (2,3-Dihydro-2-oxo-6-sulfamoyl-1H-thieno[2,3-b][1,4]thiazin-3-yl)acetic Acid] | > 5.00 | > 5.00 | –
14 | COC(=O)CC1C(=O)Nc2cc(S(N)(=O)=O)sc2S1(=O)=O (centres unmarked) [Example 11, Methyl (2,3-Dihydro-2,4,4-trioxo-6-sulfamoyl-1H-thieno[2,3-b][1,4]thiazin-3-yl)acetate] | > 5.00 | > 5.00 | –
15 | COC(=O)CC1Sc2sc(S(N)(=O)=O)cc2NC1=O (centres unmarked) [Example 12, Methyl (2,3-Dihydro-2-oxo-6-sulfamoyl-1H-thieno[2,3-b][1,4]thiazin-3-yl)acetate] | > 5.00 | > 5.00 | –
16 | NS(=O)(=O)c1cc2c(s1)S(=O)(=O)CC(=S)N2 [Example 8, 2,3-Dihydro-4,4-dioxo-6-sulfamoyl-2-thiono-1H-thieno[2,3-b][1,4]thiazine] | > 5.00 | > 5.00 | –
17 | NS(=O)(=O)c1cc2c(s1)S(=O)(=O)CCN2 [Example 6, 2,3-Dihydro-4,4-dioxo-6-sulfamoyl-1H-thieno[2,3-b][1,4]thiazine] | > 5.00 | > 5.00 | –
18 | CC(C)CNCCC1CNc2cc(S(N)(=O)=O)sc2S1(=O)=O (centres unmarked) [Example 18, 3-(2-Isobutylaminoethyl)-2,3-dihydro-4,4-dioxo-6-sulfamoyl-1H-thieno[2,3-b][1,4]thiazine Hydrochloride] | > 5.00 | > 5.00 | –
19 | NS(=O)(=O)c1cc2c(s1)S(=O)(=O)C(CC(=O)O)C(=O)N2 (centres unmarked) [Example 5, (2,3-Dihydro-2,4,4-trioxo-6-sulfamoyl-1H-thieno[2,3-b][1,4]thiazin-3-yl)acetic acid] | > 5.00 | > 5.00 | –
